Data reported in publication PMC4741878, “Specific inhibition by synthetic analogs of pyruvate reveals that the pyruvate dehydrogenase reaction is essential for metabolism and viability of glioblastoma cells” (Oncotarget, 2015).

Tests used:
[1] = biological target: T1, pyruvate dehydrogenase (PDH; E1 component of the pyruvate dehydrogenase complex, PDHC) (Rattus norvegicus, UniProt P26284+P49432); experiment: overall PDHC reaction by NADH production: Ki in permeabilized mitochondria; IC50 […] with isolated rat heart PDHC ([…] min preincubation); assay type: biochemical
T1 construct: gene Pdha1; native PDHC partially purified from rat heart or liver; PDHC in alamethicin-permeabilized rat skeletal muscle mitochondria; with PDHB (E1 beta subunit), within the PDHC with DLAT, DLD and PDHX

[2] = biological target: T1, pyruvate dehydrogenase (PDH; E1 component of the pyruvate dehydrogenase complex, PDHC); experiment: overall PDHC reaction by NADH production: Ki in permeabilized mitochondria; IC50 […] with isolated rat heart PDHC at […] pyruvate; assay type: biochemical

T1 sequence (P26284 30-390): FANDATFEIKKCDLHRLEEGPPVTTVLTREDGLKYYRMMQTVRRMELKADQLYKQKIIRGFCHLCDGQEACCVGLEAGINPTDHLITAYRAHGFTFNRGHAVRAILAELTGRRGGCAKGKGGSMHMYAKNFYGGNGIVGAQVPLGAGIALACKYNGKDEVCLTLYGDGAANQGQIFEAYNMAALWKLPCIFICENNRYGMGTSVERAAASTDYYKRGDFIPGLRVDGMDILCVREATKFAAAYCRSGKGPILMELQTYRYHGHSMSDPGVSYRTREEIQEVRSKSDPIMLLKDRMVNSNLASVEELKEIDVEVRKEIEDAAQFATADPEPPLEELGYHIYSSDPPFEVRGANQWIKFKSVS
T1 sequence (P49432 31-359): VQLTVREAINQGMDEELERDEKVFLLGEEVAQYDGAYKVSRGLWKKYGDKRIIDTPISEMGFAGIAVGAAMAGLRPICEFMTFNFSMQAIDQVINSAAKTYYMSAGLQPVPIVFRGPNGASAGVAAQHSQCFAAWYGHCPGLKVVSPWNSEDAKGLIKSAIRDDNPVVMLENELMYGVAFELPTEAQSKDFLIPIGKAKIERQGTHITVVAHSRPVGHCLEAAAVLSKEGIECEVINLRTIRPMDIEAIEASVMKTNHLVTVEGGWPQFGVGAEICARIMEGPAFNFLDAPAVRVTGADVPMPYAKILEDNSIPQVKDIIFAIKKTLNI
T1 sequence (P08461 78-632 partner): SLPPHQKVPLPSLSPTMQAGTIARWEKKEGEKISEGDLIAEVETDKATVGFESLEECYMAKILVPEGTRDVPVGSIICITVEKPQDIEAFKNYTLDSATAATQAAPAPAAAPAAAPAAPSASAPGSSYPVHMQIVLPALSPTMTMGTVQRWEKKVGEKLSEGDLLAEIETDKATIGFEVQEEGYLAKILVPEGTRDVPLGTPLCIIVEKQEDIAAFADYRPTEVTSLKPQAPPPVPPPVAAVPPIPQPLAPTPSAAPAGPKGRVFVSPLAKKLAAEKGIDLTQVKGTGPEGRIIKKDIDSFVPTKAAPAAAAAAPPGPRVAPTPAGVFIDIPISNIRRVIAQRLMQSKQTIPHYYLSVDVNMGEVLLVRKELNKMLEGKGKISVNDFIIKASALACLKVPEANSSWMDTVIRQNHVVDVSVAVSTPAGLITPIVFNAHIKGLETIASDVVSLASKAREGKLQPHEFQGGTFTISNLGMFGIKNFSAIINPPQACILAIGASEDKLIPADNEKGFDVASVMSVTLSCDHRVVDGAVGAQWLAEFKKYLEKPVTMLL
T1 sequence (Q6P6R2 36-509 partner): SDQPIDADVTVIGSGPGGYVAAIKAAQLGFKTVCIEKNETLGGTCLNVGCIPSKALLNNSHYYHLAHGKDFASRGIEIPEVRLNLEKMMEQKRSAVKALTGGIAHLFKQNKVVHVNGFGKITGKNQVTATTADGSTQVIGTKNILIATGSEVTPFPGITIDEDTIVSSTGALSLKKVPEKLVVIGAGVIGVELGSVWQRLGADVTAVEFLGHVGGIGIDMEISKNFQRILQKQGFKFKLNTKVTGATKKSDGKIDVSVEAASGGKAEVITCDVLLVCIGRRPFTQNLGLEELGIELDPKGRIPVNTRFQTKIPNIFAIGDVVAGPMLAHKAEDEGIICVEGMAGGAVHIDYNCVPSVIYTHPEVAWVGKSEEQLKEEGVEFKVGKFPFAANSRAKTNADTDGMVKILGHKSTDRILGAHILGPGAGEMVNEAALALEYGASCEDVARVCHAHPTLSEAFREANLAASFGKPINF

Row | SMILES | Ki [1] [µM] | Ki [2] [µM]
1 | CC(=O)[PH](=O)O [AcPH, acetyl phosphinate] | 0.1 | –
2 | COP(=O)(O)C(C)=O [AcPMe, methyl ester of acetyl phosphonate] | – | 40
